Experimental data from BigSolDB 2.1.

Cc1ccc(N)c([N+](=O)[O-])c1
Details	solubility (mole fraction)
in 1,2-dichloroethane, 278.15 K	0.0289
in 1,2-dichloroethane, 280.65 K	0.0326
in 1,2-dichloroethane, 283.15 K	0.0355
in 1,2-dichloroethane, 285.65 K	0.0397
in 1,2-dichloroethane, 288.15 K	0.0432
in 1,2-dichloroethane, 290.65 K	0.0468
in 1,2-dichloroethane, 293.15 K	0.0506
in 1,2-dichloroethane, 295.65 K	0.0548
in 1,2-dichloroethane, 298.15 K	0.0594
in 1,2-dichloroethane, 300.65 K	0.0642
in 1,2-dichloroethane, 303.15 K	0.0692
in 1,2-dichloroethane, 305.65 K	0.0747
in 1,2-dichloroethane, 308.15 K	0.0806
in 1,2-dichloroethane, 310.65 K	0.087
in 1,2-dichloroethane, 313.15 K	0.0937
in 1,2-dichloroethane, 315.65 K	0.101
in 1,2-dichloroethane, 318.15 K	0.109
in 1,4-dioxane, 283.15 K	0.0404
in 1,4-dioxane, 285.65 K	0.0452
in 1,4-dioxane, 288.15 K	0.0507
in 1,4-dioxane, 290.65 K	0.0568
in 1,4-dioxane, 293.15 K	0.0637
in 1,4-dioxane, 295.65 K	0.0712
in 1,4-dioxane, 298.15 K	0.0794
in 1,4-dioxane, 300.65 K	0.0883
in 1,4-dioxane, 303.15 K	0.0986
in 1,4-dioxane, 305.65 K	0.11
in 1,4-dioxane, 308.15 K	0.121
in 1,4-dioxane, 310.65 K	0.134
in 1,4-dioxane, 313.15 K	0.149
in 2-butanone, 278.15 K	0.12
in 2-butanone, 280.65 K	0.128
in 2-butanone, 283.15 K	0.136
in 2-butanone, 285.65 K	0.144
in 2-butanone, 288.15 K	0.153
in 2-butanone, 290.65 K	0.162
in 2-butanone, 293.15 K	0.171
in 2-butanone, 295.65 K	0.181
in 2-butanone, 298.15 K	0.191
in 2-butanone, 300.65 K	0.202
in 2-butanone, 303.15 K	0.213
in 2-butanone, 305.65 K	0.224
in 2-butanone, 308.15 K	0.236
in 2-butanone, 310.65 K	0.249
in 2-butanone, 313.15 K	0.261
in DMF, 278.15 K	0.0984
in DMF, 280.65 K	0.105
in DMF, 283.15 K	0.112
in DMF, 285.65 K	0.122
in DMF, 288.15 K	0.131
in DMF, 290.65 K	0.14
in DMF, 293.15 K	0.15
in DMF, 295.65 K	0.161
in DMF, 298.15 K	0.171
in DMF, 300.65 K	0.182
in DMF, 303.15 K	0.194
in DMF, 305.65 K	0.206
in DMF, 308.15 K	0.219
in DMF, 310.65 K	0.232
in DMF, 313.15 K	0.247
in acetonitrile, 278.15 K	0.0274
in acetonitrile, 280.65 K	0.0302
in acetonitrile, 283.15 K	0.0334
in acetonitrile, 285.65 K	0.0369
in acetonitrile, 288.15 K	0.0406
in acetonitrile, 290.65 K	0.0447
in acetonitrile, 293.15 K	0.0493
in acetonitrile, 295.65 K	0.0543
in acetonitrile, 298.15 K	0.0602
in acetonitrile, 300.65 K	0.0657
in acetonitrile, 303.15 K	0.0721
in acetonitrile, 305.65 K	0.0794
in acetonitrile, 308.15 K	0.0872
in acetonitrile, 310.65 K	0.0955
in acetonitrile, 313.15 K	0.105
in chlorobenzene, 278.15 K	0.016
in chlorobenzene, 280.65 K	0.0174
in chlorobenzene, 283.15 K	0.0194
in chlorobenzene, 285.65 K	0.0216
in chlorobenzene, 288.15 K	0.0239
in chlorobenzene, 290.65 K	0.0262
in chlorobenzene, 293.15 K	0.0288
in chlorobenzene, 295.65 K	0.0316
in chlorobenzene, 298.15 K	0.0349
in chlorobenzene, 300.65 K	0.0383
in chlorobenzene, 303.15 K	0.0421
in chlorobenzene, 305.65 K	0.0463
in chlorobenzene, 308.15 K	0.0507
in chlorobenzene, 310.65 K	0.0556
in chlorobenzene, 313.15 K	0.0611
in chlorobenzene, 315.65 K	0.0671
in chlorobenzene, 318.15 K	0.0738
in ethanol, 278.15 K	0.00983
in ethanol, 280.65 K	0.0107
in ethanol, 283.15 K	0.0118
in ethanol, 285.65 K	0.0128
in ethanol, 288.15 K	0.0139
in ethanol, 290.65 K	0.0152
in ethanol, 293.15 K	0.0165
in ethanol, 295.65 K	0.0179
in ethanol, 298.15 K	0.0194
in ethanol, 300.65 K	0.021
in ethanol, 303.15 K	0.0228
in ethanol, 305.65 K	0.0246
in ethanol, 308.15 K	0.0266
in ethanol, 310.65 K	0.0289
in ethanol, 313.15 K	0.0312
in ethyl acetate, 278.15 K	0.076
in ethyl acetate, 280.65 K	0.0816
in ethyl acetate, 283.15 K	0.087
in ethyl acetate, 285.65 K	0.0933
in ethyl acetate, 288.15 K	0.0996
in ethyl acetate, 290.65 K	0.106
in ethyl acetate, 293.15 K	0.113
in ethyl acetate, 295.65 K	0.12
in ethyl acetate, 298.15 K	0.128
in ethyl acetate, 300.65 K	0.136
in ethyl acetate, 303.15 K	0.144
in ethyl acetate, 305.65 K	0.153
in ethyl acetate, 308.15 K	0.162
in ethyl acetate, 310.65 K	0.172
in ethyl acetate, 313.15 K	0.182
in isopropanol, 278.15 K	0.0102
in isopropanol, 280.65 K	0.0112
in isopropanol, 283.15 K	0.0122
in isopropanol, 285.65 K	0.0134
in isopropanol, 288.15 K	0.0146
in isopropanol, 290.65 K	0.0161
in isopropanol, 293.15 K	0.0176
in isopropanol, 295.65 K	0.0192
in isopropanol, 298.15 K	0.0209
in isopropanol, 300.65 K	0.0227
in isopropanol, 303.15 K	0.0248
in isopropanol, 305.65 K	0.0268
in isopropanol, 308.15 K	0.0293
in isopropanol, 310.65 K	0.0317
in isopropanol, 313.15 K	0.0346
in methanol, 278.15 K	0.00863
in methanol, 280.65 K	0.00933
in methanol, 283.15 K	0.0104
in methanol, 285.65 K	0.0112
in methanol, 288.15 K	0.0121
in methanol, 290.65 K	0.0133
in methanol, 293.15 K	0.0144
in methanol, 295.65 K	0.0156
in methanol, 298.15 K	0.0169
in methanol, 300.65 K	0.0182
in methanol, 303.15 K	0.0198
in methanol, 305.65 K	0.0213
in methanol, 308.15 K	0.023
in methanol, 313.15 K	0.0268
in n-butanol, 278.15 K	0.0126
in n-butanol, 280.65 K	0.0138
in n-butanol, 283.15 K	0.0152
in n-butanol, 285.65 K	0.0166
in n-butanol, 288.15 K	0.018
in n-butanol, 290.65 K	0.0197
in n-butanol, 293.15 K	0.0214
in n-butanol, 295.65 K	0.0232
in n-butanol, 298.15 K	0.0253
in n-butanol, 300.65 K	0.0273
in n-butanol, 303.15 K	0.0297
in n-butanol, 305.65 K	0.0321
in n-butanol, 308.15 K	0.0348
in n-butanol, 310.65 K	0.0376
in n-butanol, 313.15 K	0.0406
in n-propanol, 278.15 K	0.0111
in n-propanol, 280.65 K	0.012
in n-propanol, 283.15 K	0.0132
in n-propanol, 285.65 K	0.0143
in n-propanol, 288.15 K	0.0157
in n-propanol, 290.65 K	0.017
in n-propanol, 293.15 K	0.0185
in n-propanol, 295.65 K	0.0202
in n-propanol, 298.15 K	0.0218
in n-propanol, 300.65 K	0.0237
in n-propanol, 303.15 K	0.0257
in n-propanol, 305.65 K	0.0278
in n-propanol, 310.65 K	0.0326
in n-propanol, 313.15 K	0.0352
in tetrachloromethane, 278.15 K	0.00242
in tetrachloromethane, 280.65 K	0.00265
in tetrachloromethane, 283.15 K	0.00297
in tetrachloromethane, 285.65 K	0.00333
in tetrachloromethane, 288.15 K	0.00371
in tetrachloromethane, 290.65 K	0.00406
in tetrachloromethane, 293.15 K	0.00452
in tetrachloromethane, 295.65 K	0.00497
in tetrachloromethane, 298.15 K	0.0055
in tetrachloromethane, 300.65 K	0.00602
in tetrachloromethane, 303.15 K	0.00662
in tetrachloromethane, 305.65 K	0.00721
in tetrachloromethane, 308.15 K	0.00797
in tetrachloromethane, 310.65 K	0.00876
in tetrachloromethane, 313.15 K	0.00963
in tetrachloromethane, 315.65 K	0.0105
in tetrachloromethane, 318.15 K	0.0117
in toluene, 278.15 K	0.0118
in toluene, 280.65 K	0.0131
in toluene, 283.15 K	0.0146
in toluene, 285.65 K	0.016
in toluene, 288.15 K	0.0176
in toluene, 290.65 K	0.0194
in toluene, 293.15 K	0.0215
in toluene, 295.65 K	0.0236
in toluene, 298.15 K	0.0259
in toluene, 300.65 K	0.0284
in toluene, 303.15 K	0.0312
in toluene, 305.65 K	0.0343
in toluene, 308.15 K	0.0375
in toluene, 310.65 K	0.0411
in toluene, 313.15 K	0.045
